Experiments:
Assay type in all cases: in vivo
[1] = system: 3rd-instar larvae of Pyrausta nubilalis Hubern; test: Joint toxicity of I-72 + metaflumizone, artificial diet-pesticide film, Example 2, Table 2; settings: Ostrinia nubilalis, 72 h, A = compound I-72, B = metaflumizone, read-out: LC50
Protocol: Test subject: 3rd-instar larvae of Pyrausta nubilalis Hubern, a sensitive strain reared indoors.
Experimental method: the artificial diet-pesticide film method was adopted. A standard clean 24-well culture plate was selected. 1 ml of artificial diet was added to each well. After the diet cooled and solidified, a quantitative amount of a pesticide solution was added to the culture plate using a continuous sampler, and then it was air-dried naturally in the shade. The standard test insects were introduced, with 1 insect in each well, a total of 48 insects. The treated test insects were placed in an observation room under certain conditions. The reaction of the test insects was regularly observed, and the number of dead and live insects was investigated 72 h later.
The test conditions, the preparation method of the pesticide solution, and the evaluation method (Sun Y-P) for the joint action type of the mixture were the same as those in Example 1.

[2] = system: adult Bemisia tabaci (Gennadius); test: Joint toxicity of I-72 + abamectin, seedling spraying, Example 13, Table 13; settings: Bemisia tabaci; adults, kidney bean seedling spraying, 72 h; A = compound I-72, B = abamectin; read-out: LC50
Excerpt: Test subject: adult Bemisia tabaci (Gennadius), a sensitive strain reared indoors.
Experimental method: the spraying method was adopted. The kidney bean seedlings cultivated in the greenhouse were selected and evenly sprayed with the pesticide solution in the order from low dosage to high dosage according to the experimental design. After natural air-drying in the shade, a self-made glass cover was put on, and the test insects were introduced, with 20-30 insects for each treatment and 3 replicates. In addition, a blank control was set up. The number of dead and live insects was investigated 72 hours later. The corrected mortality rate was calculated using the Abbott's formula, and the DPS data processing software was used for statistical analysis to calculate the toxicities (LC50 values) of the single test pesticides and the mixtures under the test ratios.
(§1) The test conditions, the preparation of the pesticide solution and the evaluation method were the same as those in Example 1.
The test subject, the test method, the test conditions, the preparation of the pesticide solution and the evaluation method were the same as those in Example 12.

[3] = system: Frankliniella occidentalis Pergande; test: Joint toxicity of I-72 + organophosphorus insecticides, leaf dipping, Example 14, Table 14; settings: foliar, kidney bean leaf dipping, 48 h, A = compound I-72, B = triazophos, read-out: LC50
Excerpt: Test target: Frankliniella occidentalis Pergande, a sensitive strain reared indoors.
Experimental method: first, kidney bean leaves were selected and dipped in the prepared pesticide solution for 10 s in the order from low dosage to high dosage according to the experimental design. After natural air-drying in the shade, they were placed in a 9-cm-diameter Petri dish with filter paper, and uniform and healthy test insects were introduced, with about 20 insects for each treatment and 3 replicates for each treatment. In addition, a blank control was set up.

[4] = system: 2nd-instar larvae of Chilo suppressalis (Walker); test: Joint toxicity of I-72 + azadirachtin, Example 36, Table 36; settings: A = compound I-72, B = azadirachtin, rice stalk spraying, 72 hours, chlorantraniliprole-resistant strain, read-out: LC50
Excerpt: Test target: 2nd-instar larvae of Chilo suppressalis (Walker). The insect source was collected from Nanchang, Jiangxi Province, and it is the 11th generation continuously cultured indoors, with a relatively high resistance level to amide pesticides such as chlorantraniliprole.
Experimental method: the spraying method was adopted. Rice stalks with the same length and thickness were selected, cut into the same length, and evenly sprayed with the pesticide solution in the order from low dosage to high dosage according to the experimental design, with 1.5 mL of the pesticide solution for each treatment. The stalks were placed in a 6-cm-diameter Petri dish with filter paper. After natural air-drying in the shade, uniform and healthy test insects were introduced, with 10 insects for each treatment and 4 replicates for each treatment. In addition, a blank control was set up. The number of dead and live insects was investigated 72 hours later. The corrected mortality rate was calculated using the Abbott's formula, and the DPS data processing software was used for statistical analysis to calculate the toxicities (LC50 values) of the single test pesticides and the mixtures under the test ratios.
as §1

[5] = system: Lipaphis erysimi (Kaltenbach); test: Joint toxicity of I-72 + pyrethrin, Example 47, Table 47; settings: Lipaphis erysimi; A = compound I-72, B = pyrethrin; cabbage leaf spraying; 48 hours; read-out: LC50
Protocol: Test target: Lipaphis erysimi (Kaltenbach).
(§2) Preparation of the pesticide solution: according to different test requirements, the test samples were accurately weighed respectively with an electronic analytical balance. The technical pesticides were dissolved in acetone, and then diluted with 0.1% Tween 80 water into a series of pesticide solutions with a certain concentration gradient according to the experimental design dosage.
Experimental method: first, cabbage leaves with uniform and consistent Lipaphis erysimi (Kaltenbach) were selected, with about 30-40 insects on each leaf. Then, they were evenly sprayed with the pesticide solution in the order from low dosage to high dosage according to the experimental design, with 1.5 mL of the solution for each leaf and 3 replicates for each treatment. In addition, a blank control was set up.
(§3) The treated test materials were placed in an observation room, and the temperature, humidity and illumination of the observation room could be adjusted as needed. The number of dead and live insects was investigated 48 hours later. […] Then, the co-toxicity coefficient of each ratio was calculated using the Sun Y-P method to evaluate the mixing effect (the same as in Example 1).

[6] = system: Unaspis yanonensis Kuwana nymphs; test: Joint toxicity of I-72 + afidopyropen, Example 76, Table 76; settings: Unaspis yanonensis, foliar; A = compound I-72, B = afidopyropen; citrus leaf dipping; 120 hours; read-out: LC50
Protocol: Test target: Unaspis yanonensis Kuwana nymphs.
as §2
Experimental method: the activity of the mixture against Unaspis yanonensis Kuwana nymphs on citrus was determined by adopting the dipping method. First, the collected citrus leaves with Unaspis yanonensis Kuwana nymphs were treated with the pesticide solution in the order from low dosage to high dosage according to the experimental design. After air-drying, the petioles were kept moist with degreased cotton, and then the leaves were placed in a Petri dish, with 3 replicates for each treatment. In addition, a blank control was set up.
as §3, with “120” for “48”

Rhizoctonia solani = test: Control efficacy against Rhizoctonia solani, rice seedling potting method, Example 89, Table 89; settings: rice seedlings, foliar spraying
Protocol: Control efficacy of the composition containing the compound I-72 against Rhizoctonia solani
Test target: Rhizoctonia solani, a sensitive strain cultured indoors.
The trial adopted the seedling potting method. Test crop: rice. Experimental method: the rice seedlings were cultured to the 2-leaf stage in the greenhouse of the experimental materials. Foliar spraying treatment was performed on the crop sprayer according to the designed dosage. The test target strain was inoculated 24 hours after the pesticide treatment. All the inoculated experimental materials were cultured in a phytotron. […] The disease grading and the calculation method of the control efficacy both referred to the agricultural industry standards of the People's Republic of China.

SMILES: CN(C(=O)c1ccc2c(c1)OC(F)(F)O2)c1cccc(C(=O)Nc2c(Br)cc(C(F)(C(F)(F)F)C(F)(F)F)cc2OC(F)F)c1F [Compound I-72]
- LC50 [1]: 0.67 µg/mL
- LC50 [2]: 2.97 µg/mL
- LC50 [3]: 3.13 µg/mL
- LC50 [4]: 0.822 µg/mL
- LC50 [5]: 10.4 µg/mL
- LC50 [6]: 75.4 µg/mL
- Control efficacy (Rhizoctonia solani; 5 mg/L, A = compound I-72, B = coumoxystrobin): 0%
- Control efficacy (Rhizoctonia solani; 5 mg/L, A = compound I-72, B = pyraoxystrobin): 0%
- Control efficacy (Rhizoctonia solani; 10 mg/L, A = compound I-72, B = coumoxystrobin): 0%
- Control efficacy (Rhizoctonia solani; 10 mg/L, A = compound I-72, B = pyraoxystrobin): 0%
- Control efficacy (Rhizoctonia solani; 20 mg/L, A = compound I-72, B = coumoxystrobin): 0%
- Control efficacy (Rhizoctonia solani; 20 mg/L, A = compound I-72, B = pyraoxystrobin): 0%
